Broadly, the Ki is the equilibrium dissociation constant of an inhibitor or competing ligand from its target.

The target of this assay is T1, human subtype 5 somatostatin receptor (Homo sapiens, UniProt P35346).
T1 construct: host or cells: CHO cell line, stably transfected; membranes prepared by sonication and centrifugation
T1 sequence (P35346 whole entry): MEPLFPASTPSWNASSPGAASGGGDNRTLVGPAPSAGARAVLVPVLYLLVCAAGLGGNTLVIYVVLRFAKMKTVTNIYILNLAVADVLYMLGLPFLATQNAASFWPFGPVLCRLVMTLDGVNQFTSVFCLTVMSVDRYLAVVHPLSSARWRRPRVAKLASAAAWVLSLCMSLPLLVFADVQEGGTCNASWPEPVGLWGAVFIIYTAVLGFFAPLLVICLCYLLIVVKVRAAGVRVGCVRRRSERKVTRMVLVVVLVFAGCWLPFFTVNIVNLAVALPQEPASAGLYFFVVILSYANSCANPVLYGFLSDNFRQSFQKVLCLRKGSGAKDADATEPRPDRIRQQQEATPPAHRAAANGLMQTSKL
The experiment in a line: SSTR5 radioligand binding on membranes of CHO cells expressing the human receptor (125I-labeled 11-Tyr somatostatin-14 tracer). The note with it: Ki calculated from IC50 by the Cheng-Prussoff equation, 0.05 nM 125I tracer, 1 hour at room temperature, read-out: SSTR 5 Ki. The procedure: A CHO cell line stably transfected with a plasmid encoding the human subtype 5 somatostatin receptor (GenBank accession number D16827) was obtained from Euroscreen. Cells were cultured and used for binding and functional assays.
Membranes of these cells were prepared by sonication in the presence of protease inhibitors and subsequent fractionating centrifugation. The protein concentration in the membrane preparation was determined using a commercial kit (BCA kit, Pierce, USA). Membranes were stored at −80° C. until use. After thawing, membranes were diluted in assay buffer (50 mM TRIS-HCl at pH 7.4, 5 mM MgCl2 and 0.20% BSA (bovine serum albumine)) and subjected to dounce homogenization.
For binding studies, 0.1 mL membrane suspension, corresponding to app. 6×10^−15 mol receptor, was incubated for 1 hour at room temperature with 0.05 nM ^125I-labeled tracer (11-Tyr somatostatin-14, Perkin-Elmer) and either test compounds in varying concentrations or, for the determination of non-specific binding, 0.001 mM non-labeled somatostatin-14 (Sigma-Aldrich, Buchs, Switzerland). The incubation was stopped by filtration through GF/B glassfiber filters (Unifilter, Perkin-Elmer) and washing with ice-cold wash buffer (50 mM Tris-HCl at pH 7.4). The bound radioactivity was measured after application of a scintillation cocktail (Microscint 40, Perkin-Elmer) and expressed as disintegrations per minute (dpm).
The receptor concentration was determined in a prior saturation experiment where a fixed, arbitrary amount of membranes was incubated with a concentration range of radio-labeled tracer. This allows estimating the total number of specific binding sites per amount of protein (i.e., Bmax), typically between 1 and 5 pmol/mg.
The concentration of the test compound required to result in half maximal inhibition of binding of the radio-labeled tracer (IC50) was estimated from a concentration-versus-dpm graph. The binding affinity (Ki) was calculated from the IC50 by applying the Cheng-Prussoff equation for single binding sites.
Consider `CCOc1cc(CN2CCC(Nc3nc4c(N)cccc4o3)CC2)cc(OCC)c1-n1cccc1` [Example 23, N^2-[1-(3,5-Diethoxy-4-pyrrol-1-yl-benzyl)-piperidin-4-yl]-benzooxazole-2,4-diamine], for which the Ki is 6 nM.

As for `CCOc1cc(CN2CCC(Nc3nc4ccc(C(=O)O)cc4o3)CC2)cc(OCC)c1N` [Example 71, 2-[1-(4-Amino-3,5-diethoxy-benzyl)-piperidin-4-ylamino]-benzooxazole-6-carboxylic Acid], the Ki is 44 nM.

In the case of `CCOc1cc(CN2CCC(Nc3nc4c([N+](=O)[O-])cccc4o3)CC2)ccc1F` [Example 73, [1-(3-Ethoxy-4-fluoro-benzyl)-piperidin-4-yl]-(4-nitro-benzooxazol-2-yl)-amine], the inhibition constant (Ki) is 223 nM.

The values above are taken from US20090163517A1, “BENZOOXAZOLE, OXAZOLOPYRIDINE, BENZOTHIAZOLE AND THIAZOLOPYRIDINE DERIVATIVES” (priority 2005, published 2009).
